According to publication PMC9774939, “Optimization of Pyrazole Compounds as Antibiotic Adjuvants Active against Colistin- and Carbapenem-Resistant Acinetobacter baumannii” (Antibiotics, 2022):

Row | SMILES | melting point [°C]
1 | N#Cc1c(C(=O)NC23CC4CC(CC(C4)C2)C3)nn(-c2ccccc2)c1-n1cccc1 | 227 to 229
2 | Cc1c(C(=O)NCc2ccc(F)cc2)nn(-c2ccc(Cl)c(Cl)c2)c1-n1cccc1 | 148 to 151
3 | CN1CCN(C(=O)c2cnn(C)c2-n2cccc2)CC1 [Compound 3, (4-Methylpiperazin-1-yl)[1-methyl-5-(1H-pyrrol-1-yl)-1H-pyrazol-4-yl]methanone] | 109 to 111
4 | CN1CCN(C(=O)c2cnn(-c3ccccc3)c2-n2cccc2)CC1 [Compound 4, (4-Methylpiperazin-1-yl)[1-phenyl-5-(1H-pyrrol-1-yl)-1H-pyrazol-4-yl]methanone] | 156 to 158
5 | O=C(NN1CCCCC1)c1cnn(-c2ccccc2)c1-n1cccc1 [Compound 5, 1-Phenyl-N-(piperidin-1-yl)-5-(1H-pyrrol-1-yl)-1H-pyrazole-4-carboxamide] | 165 to 167
6 | O=C(Nc1ccc(Cl)cc1)c1cnn(-c2ccccc2)c1-n1cccc1 [Compound 6, N-(4-Chlorophenyl)-1-phenyl-5-(1H-pyrrol-1-yl)-1H-pyrazole-4-carboxamide] | 197 to 198
7 | O=C(c1cnn(-c2ccccc2)c1-n1cccc1)N1CCN(c2ncccn2)CC1 [Compound 7, [1-Phenyl-5-(1H-pyrrol-1-yl)-1H-pyrazol-4-yl][4-(pyrimidin-2-yl)piperazin-1-yl]methanone] | 218 to 219
8 | COC(=O)CNC(=O)c1cnn(-c2ccccc2)c1-n1cccc1 [Compound 11, Methyl [[[1-Phenyl-5-(1H-pyrrol-1-yl)-1H-pyrazol-4-yl]carbonyl]amino]acetate] | 139 to 141
9 | CCOC(=O)[C@H](C)NC(=O)c1cnn(-c2ccccc2)c1-n1cccc1 [Compound 12, Ethyl (S)-2-[[[1-Phenyl-5-(1H-pyrrol-1-yl)-1H-pyrazol-4-yl]carbonyl]amino]propanoate] | 90 to 92
10 | CCOC(=O)[C@H](C)NC(=O)CNC(=O)c1cnn(-c2ccccc2)c1-n1cccc1 [Compound 18, N-[N-[[1-Phenyl-5-(1H-pyrrol-1-yl)-1H-pyrazol-4-yl]carbonyl]glycyl]-L-alanine Ethyl Ester] | 116 to 117
11 | CC(C)(C)OC(=O)Nc1c(C(=O)NCc2ccc(Br)cc2)cnn1-c1ccc([N+](=O)[O-])cc1 [Compound 21, N-(4-Bromobenzyl)-5-(tert-butoxycarbonylamino)-1-(4-nitrophenyl)-1H-pyrazole-4-carboxamide] | 169 to 171
12 | O=C(NC12CC3CC(CC(O)(C3)C1)C2)c1cc(-n2cccc2)n(-c2ccccc2)n1 [Compound 23, N-(Adamantan-3-ol-1-yl)-1-phenyl-5-(1H-pyrrol-1-yl)-1H-pyrazole-3-carboxamide] | 217 to 221
13 | CC(C)(C)OC(=O)[C@H](Cc1ccccc1)NC(=O)c1nn(-c2ccccc2)c(-n2cccc2)c1C#N [Compound 25, tert-Butyl (S)-3-Phenyl-2-[[[4-cyano-1-phenyl-5-(1H-pyrrol-1-yl)-1H-pyrazol-3-yl]carbonyl]amino]propanoate] | 93 to 94
14 | CCOC(=O)N1CCN(C(=O)c2nn(-c3ccccc3)c(-n3cccc3)c2C)CC1 [Compound 26, (4-Ethoxycarbonylpiperazin-1-yl)[4-methyl-1-phenyl-5-(1H-pyrrol-1-yl)-1H-pyrazol-3-yl]methanone] | 130 to 131
15 | Cc1c(C(=O)NCc2ccc3c(c2)OCO3)nn(-c2ccc(Cl)cc2)c1-n1cccc1 [Compound 29, N-(Benzo[d][1,3]dioxol-5-ylmethyl)-1-(4-chlorophenyl)-4-methyl-5-(1H-pyrrol-1-yl)-1H-pyrazole-3-carboxamide] | 144 to 148
16 | Cc1c(C(=O)N2CCOCC2)nn(-c2ccc(Cl)cc2)c1-n1cccc1 [Compound 30, [1-(4-Chlorophenyl)-4-methyl-5-(1H-pyrrol-1-yl)-1H-pyrazol-3-yl](morpholin-4-yl)methanone] | 174 to 177
